Laboratory results taken from publication PMC8187944, “Discovery of Potent EGFR Inhibitors With 6-Arylureido-4-anilinoquinazoline Derivatives” (Frontiers in Pharmacology, 2021).
Where two headings read alike, the source gives them in different places.

Assays:
MCF-7 cells = test: Anti-proliferative assay, standard CCK-8 method; format: cell-based, human; conditions: read-out: Proliferative inhibition (IC50, μM) MCF-7
Description: (§1) All reagents and solvents met the criteria of analytical reagents before use. All cancer cell lines (A549, human non-small-cell lung cell line; HT-29, human colonic adenocarcinoma cell line; MCF-7, human breast cancer cell line) were purchased from Stem Cell Bank, Chinese Academy of Sciences. […] ADP-Glo™ kinase assay kits were provided by Promega (Beijing) Biotech Co., Ltd. (Beijing, China). All kinase subtypes were supplied by SignalChem (BC, Canada).
(§2) The designed 4-anilinoquinazoline derivatives were evaluated for their antitumor bioactivities in vitro against three human tumor cell lines (A549, HT-29, and MCF-7) using the standard CCK-8 method. The CCK-8 method is based on WST-8 dye, 2-(2-methoxy-4-nitrophenyl)-3-(4-nitrophenyl)-5-(2,4-disulfophenyl)-2H-tetrazolium. WST-8 can be bio-reduced by dehydrogenases in mitochondria into orange water-soluble formazan products. Briefly, selected cancer cells in the logarithmic growth phase (1 × 10^4) were inoculated in 96-well plates and further cultured in the incubator for 24 h. First, the target compounds were diluted to different concentrations with culture medium with each dilution gradually diluted from the highest concentration solution. Second, the original culture medium was removed after the cells were completely adherent to the wall, and the compounds at various concentrations prepared above were added. In this experiment, a control group and a blank group were set: the former was treated with 0.1% DMSO solution, and the latter was treated with only the culture medium. […] A microplate reader was adopted to record the absorbance at 450 nm, and in this assay, gefitinib, erlotinib, and sorafenib were used as the reference drugs.

A549 cells = test: Anti-proliferative assay, standard CCK-8 method; format: cell-based, human; conditions: mean ± SD of at least three independent experiments, read-out: Proliferative inhibition (IC50, μM) A549
Description: as §1, §2

HT-29 cells = test: Anti-proliferative assay, standard CCK-8 method; format: cell-based, human; conditions: mean ± SD of at least three independent experiments, read-out: Proliferative inhibition (IC50, μM) HT-29
Description: as §1, §2

EGFR = biological target: T1, EGFR (Homo sapiens, UniProt P00533); test: EGFR kinase inhibition, ADP-Glo assay; format: biochemical; conditions: ADP-Glo; mean ± SD of at least two independent experiments; read-out: Enzymatic inhibition IC50 (nM) EGFR
T1 construct: 2 μl (50 ng/ml) of EGFR kinase
Protocol: The EGFR kinase inhibition activities of the target compounds were evaluated by the ADP-Glo™ assay. The ADP-Glo™ kinase detection kit is a luminescence kinase detection approach that detects the amount of ADP produced by the kinase reaction. After ADP is converted into ATP, ATP can be used as the substrate of the luciferase-catalyzed reaction to generate an optical signal, which is positively correlated with kinase activity. […] The above-prepared systems were sealed and incubated at room temperature for 2 h, and 5 μl of ADP-GLO was added to terminate the kinase reaction. Then, the culture plate was sealed and incubated in a thermostatic oscillator for 40 min to fully consume the remaining ATP. The luciferase/luciferin reaction was adopted to determine the newly generated ATP level.

[1] = system: A549, HT-29, and MCF-7 cells; test: Anti-proliferative assay, CCK-8, summaries over all three cell lines; format: cell-based; conditions: Homo sapiens, span over A549, HT-29 and MCF-7 cells, read-out: IC50 against the selected cell lines
Description: as §1, §2

[2] = mean ± SD of at least three independent experiments
[3] = Homo sapiens, MCF7, mean ± SD of at least three independent experiments

Row | Compound | IC50 (MCF-7 cells; [2]) [µM] | IC50 (A549 cells) [µM] | IC50 (HT-29 cells) [µM] | IC50 (EGFR) [nM] | IC50 (MCF-7 cells; [3]) [µM] | IC50 (A549 cells; Homo sapiens) [µM] | IC50 (HT-29 cells; Homo sapiens) [µM] | melting point [°C] | IC50 [1] [µM]
1 | O=C(Nc1ccccc1)Nc1ccc2ncnc(Nc3cccc(Br)c3)c2c1 [Compound 7a] |  |  |  |  | 15.9 ± 2.28 | 5.81 ± 0.84 | 4.66 ± 0.56 | 250 to 250.9 | 
2 | O=C(Nc1ccccc1)Nc1ccc2ncnc(Nc3ccc(Br)cc3F)c2c1 [Compound 7c] |  |  |  | 20.1 ± 2.21 | 8.57 ± 0.27 | 6.16 ± 0.45 | 5.92 ± 1.04 | 256 to 256.8 | 
3 | O=C(Nc1ccccc1)Nc1ccc2ncnc(Nc3ccc(F)c(Cl)c3)c2c1 [Compound 7d] |  |  |  | 11.8 ± 0.36 | 44.2 ± 0.97 | 38.65 ± 0.21 | 39.2 ± 2.01 | 233 to 233.7 | 
4 | O=C(Nc1ccccc1)Nc1ccc2ncnc(Nc3ccc(F)cc3)c2c1 [Compound 7f] |  |  |  | 11.7 ± 0.79 | 44.3 ± 1.12 | > 50 | 48.3 ± 0.78 | 252.8 to 253.5 | 
5 | Cc1cccc(Nc2ncnc3ccc(NC(=O)Nc4ccccc4)cc23)c1C [Compound 7h] |  |  |  | 19.7 ± 1.87 | > 50 | > 50 | > 50 | 242.8 to 243.7 | > 50
6 | C#Cc1cccc(Nc2ncnc3cc(OCCOC)c(OCCOC)cc23)c1 [Erlotinib, erlotinib, reference compound] |  |  |  |  | 11.4 ± 0.43 | 23.2 ± 0.51 | 22.8 ± 1.12 |  | 1.84 to 23.2
7 | CNC(=O)c1cc(Oc2ccc(NC(=O)Nc3ccc(Cl)c(C(F)(F)F)c3)cc2)ccn1 [Sorafenib, sorafenib, reference compound] |  |  |  |  | 3.47 ± 0.39 | 1.84 ± 0.17 | 2.27 ± 0.43 |  | 1.84 to 23.2

More lines, main results first:

Row | IC50 (MCF-7 cells; [2]) [µM] | IC50 (A549 cells) [µM] | IC50 (HT-29 cells) [µM] | IC50 (EGFR) [nM] | IC50 (MCF-7 cells; [3]) [µM] | IC50 (A549 cells; Homo sapiens) [µM] | IC50 (HT-29 cells; Homo sapiens) [µM] | melting point [°C] | Compound | IC50 [1] [µM]
8 | 3.11 ± 0.3 | 2.67 ± 0.76 | 2.67 ± 1.02 |  |  |  |  |  | 1-(4-chloro-3-(trifluoromethyl) phenyl)-3-(4-((2,3-dimethylphenyl) amino)-3,4-dihydroquinazolin-6-yl) urea [Compound 7n] | 
9 | > 50 | > 50 | 48.3 ± 1.9 | 728.1 ± 1.65 |  |  |  |  | 1-(4-chloro-3-(trifluoromethyl) phenyl)-3-(4-((2,3-dimethylphenyl) amino)-3,4-dihydroquinazolin-6-yl) urea [Compound 7t] | 
10 |  |  |  |  | 3.54 ± 0.07 | 2.79 ± 0.44 | 2.3 ± 0.5 | 269.8 to 271.1 | O=C(Nc1ccc(Cl)c(C(F)(F)F)c1)Nc1ccc2ncnc(Nc3ccc(Br)cc3)c2c1 [Compound 7k] | 
11 | 5.53 ± 0.39 | 5.6 ± 0.31 | 2.61 ± 1.25 |  |  |  |  |  | Cc1ccc(NC2NC=Nc3ccc(NC(=O)Nc4ccc(Cl)c(C(F)(F)F)c4)cc32)cc1 (stereo not drawn) [Compound 7m, 1-(4-chloro-3-(trifluoromethyl)phenyl)-3-(4-(p-tolylamino)-3,4-dihydroquina-zolin-6-yl) urea] | 
12 |  |  |  | 123.9 ± 1.09 | 33.7 ± 10.1 | 35.3 ± 0.57 | 7.83 ± 0.97 | 247.2 to 248.4 | Cc1ccc(Nc2ncnc3ccc(NC(=O)Nc4ccc(F)cc4)cc23)cc1 [Compound 7o] | 
13 |  |  |  | 58.1 ± 1.99 | 40.2 ± 2.13 | 9.34 ± 0.73 | 11.1 ± 0.39 | 241.1 to 242.7 | COc1ccc(NC(=O)Nc2ccc3ncnc(Nc4cccc(C)c4C)c3c2)cc1 [Compound 7p] | 
14 |  |  |  | 470.4 ± 1.28 | 17.9 ± 0.89 | 5.21 ± 0.3 | 36.96 ± 0.17 | 267.1 to 268.2 | COc1ccc(NC(=O)Nc2ccc3ncnc(Nc4ccc(Br)cc4)c3c2)cc1 [Compound 7q] | 
15 |  |  |  | 59.7 ± 1.31 | 46.1 ± 1.98 | > 50 | 48.21 ± 0.23 | 250.2 to 251.8 | COc1ccc(NC(=O)Nc2ccc3ncnc(Nc4ccc(F)cc4)c3c2)cc1 [Compound 7r] | 
16 |  |  |  | 108 ± 2.64 | 47.6 ± 0.76 | > 50 | 46.2 ± 0.57 | 259.5 to 260.1 | COc1ccc(NC(=O)Nc2ccc3ncnc(Nc4ccc(C)cc4)c3c2)cc1 [Compound 7s] | 
